According to publication PMC8881610 (Nature Communications, 2022):
Values joined by “and” are separate entries in the source; they are usually repeats but may differ in a detail not shown here. Equal entries are not always repeated. Where two headings read alike, the source gives them in different places.

Tests used:
GLP-1R [1] = target: T1, GLP-1R (Homo sapiens, UniProt P43220); assay: Whole-cell binding assay, competition with 125I-GLP-1(7-36)NH2; parameters: Flag; expressed in transfected cells
T1 sequence (P43220 24-463): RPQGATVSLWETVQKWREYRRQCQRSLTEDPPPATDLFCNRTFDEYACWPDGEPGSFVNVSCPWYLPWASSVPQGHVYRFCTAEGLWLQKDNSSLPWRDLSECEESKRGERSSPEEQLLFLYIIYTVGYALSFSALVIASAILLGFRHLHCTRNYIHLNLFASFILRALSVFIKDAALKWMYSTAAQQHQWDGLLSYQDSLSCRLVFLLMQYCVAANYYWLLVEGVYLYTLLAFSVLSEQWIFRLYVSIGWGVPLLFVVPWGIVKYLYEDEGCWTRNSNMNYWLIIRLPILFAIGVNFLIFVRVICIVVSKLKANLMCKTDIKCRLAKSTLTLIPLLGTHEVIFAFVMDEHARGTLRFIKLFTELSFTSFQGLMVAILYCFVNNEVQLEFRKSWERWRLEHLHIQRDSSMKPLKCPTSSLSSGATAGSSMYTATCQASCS
Description: (§1) Human embryonic kidney 293 cells containing SV40 large T-antigen (HEK293T) were cultured in DMEM (Gibco) supplemented with 10% (v/v) fetal bovine serum (FBS, Gibco), 1 mM sodium pyruvate (Gibco) and 100 units/mL penicillin and 100 μg/mL streptomycin at 37 °C in 5% CO2. Chinese hamster ovary (CHO-K1) cells were cultured in F-12 (Gibco) containing 10% FBS, 100 units/mL penicillin and 100 μg/mL streptomycin at 37 °C in 5% CO2. For cAMP and receptor expression assays, HEK293T cells were seeded into 6-well cell culture plates at a density of 7 × 10^5 cells per well. After overnight incubation, cells were transfected with GIPR, GLP-1R or GCGR construct using Lipofectamine 2000 or Lipofectamine 3000 transfection reagent (Invitrogen). For whole-cell binding assay, CHO-K1 cells were seeded into 96-well fibronectin-treated cell culture plates at a density of 3 × 10^4 cells per well. After overnight incubation, cells were transfected with GIPR, GLP-1R or GCGR construct using Lipofectamine 2000 transfection reagent (Invitrogen). Following 24 h culturing, the transfected cells were ready for use.
(§2) For GLP-1R and GCGR, CHO-K1 cells (30,000 cells/well) were seeded into Isoplate-96 plates and incubated for 24 h at 37 °C in 5% CO2. The WT or mutant constructs were transiently transfected using Lipofectamine 2000 transfection reagent as previous described. They were then washed twice using F-12 with 0.1% BSA or 0.1% casein, 33 mM HEPES, and incubated for 2 h at 37 °C. […] Cells were washed three times with ice-cold PBS and lysed in PBS with 1% Triton X-100, 20 mM Tris-HCl. After addition of scintillation cocktail (PerkinElmer), radioactivity (CPM) was counted on a MicroBeta^2 microplate counter (PerkinElmer). Data were normalized to the WT response and analyzed using three-parameter logistic equation.

GCGR = GCGR (Homo sapiens, UniProt P47871); assay: Whole-cell binding assay, competition with 125I-GCG; parameters: V5 (C); 6×His (C); expressed in transfected cells; host or cells: CHO-K1
GCGR, sequence (P47871 26-477): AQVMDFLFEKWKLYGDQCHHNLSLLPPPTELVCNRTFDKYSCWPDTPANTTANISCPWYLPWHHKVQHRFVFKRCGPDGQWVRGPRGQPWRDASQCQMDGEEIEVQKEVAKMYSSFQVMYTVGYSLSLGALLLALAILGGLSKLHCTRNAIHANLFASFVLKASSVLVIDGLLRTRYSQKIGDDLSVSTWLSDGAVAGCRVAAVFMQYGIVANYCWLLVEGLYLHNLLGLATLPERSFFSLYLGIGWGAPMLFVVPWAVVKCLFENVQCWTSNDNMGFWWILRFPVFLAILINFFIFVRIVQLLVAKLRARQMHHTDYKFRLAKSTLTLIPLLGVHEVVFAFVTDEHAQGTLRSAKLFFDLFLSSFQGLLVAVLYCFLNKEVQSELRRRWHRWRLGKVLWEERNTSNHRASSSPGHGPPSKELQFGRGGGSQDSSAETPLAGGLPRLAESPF
Description: as §1, §2

GLP-1R [2] = target: T1, GLP-1R; assay: cAMP accumulation assay, GLP-1R WT, mutant or modified constructs; assay type: cell-based; parameters: Flag; expressed in transfected cells; host or cells: HEK293T; settings: HEK293T; for Emax: HEK-293T
Description: as §1
The human GLP-1R was modified with its native signal sequence (M1-P23) replaced by the HA signal peptide to facilitate receptor expression. To obtain a GLP-1R–Gs complex with good homogeneity and stability, we used the NanoBiT tethering strategy, in which the C terminus of GLP-1R was directly attached to LgBiT subunit followed by a TEV protease cleavage site and a double MBP tag. […] The constructs were cloned into both pcDNA3.1 and pFastBac vectors for functional assays in mammalian cells and protein expression in insect cells, respectively. Other constructs including the full-length and various mutants of human GLP-1R were cloned into pcDNA3.1 vector for cAMP accumulation and whole-cell binding assays.
For GIPR, GLP-1R and GCGR, multi-targeting agonist stimulated cAMP accumulation was measured by a LANCE Ultra cAMP kit (PerkinElmer). After 24 h culture, the transfected cells were seeded into 384-well microtiter plates at a density of 3,000 cells per well in HBSS supplemented with 5 mM HEPES, 0.1% (w/v) BSA or 0.1% (w/v) casein and 0.5 mM 3-isobutyl-1-methylxanthine. The cells were stimulated with different concentrations of peptide agonists for 40 min at RT. Eu-cAMP tracer and ULight^TM-anti-cAMP were then diluted by cAMP detection buffer and added to the plates separately to terminate the reaction. Plates were incubated at RT for 1 h and the fluorescence intensity measured at 620 nm and […] by an EnVision multilabel plate reader (PerkinElmer).

GIPR = target: T2, GIPR (Homo sapiens, UniProt P48546); assay: Whole-cell binding assay, competition with 125I-GIP1-42; parameters: acylated tirzepatide to the full-length or modified; Flag; expressed in transfected cells
T2 sequence (P48546 22-466): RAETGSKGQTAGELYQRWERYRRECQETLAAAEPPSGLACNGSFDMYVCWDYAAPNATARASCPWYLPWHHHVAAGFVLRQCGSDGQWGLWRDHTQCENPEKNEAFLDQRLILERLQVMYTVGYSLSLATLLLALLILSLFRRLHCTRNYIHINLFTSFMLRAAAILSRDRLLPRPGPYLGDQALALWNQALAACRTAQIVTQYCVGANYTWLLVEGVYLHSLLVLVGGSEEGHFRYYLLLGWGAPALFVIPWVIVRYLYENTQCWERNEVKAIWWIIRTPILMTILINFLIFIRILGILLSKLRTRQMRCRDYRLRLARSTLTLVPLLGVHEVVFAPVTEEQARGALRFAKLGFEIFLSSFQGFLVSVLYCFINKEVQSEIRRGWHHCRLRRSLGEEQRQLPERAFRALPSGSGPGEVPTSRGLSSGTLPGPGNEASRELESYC
Description: as §1
For GIPR, CHO-K1 cells were cultured in F-12 medium with 10% FBS and seeded at a density of 30,000 cells/well in Isoplate-96 plates (PerkinElmer). The WT or mutant GIPR was transiently transfected using Lipofectamine 2000 transfection reagent as previous described. They were then washed twice using F-12 with 0.1% BSA or 0.1% casein, 33 mM HEPES, and incubated for 2 h at 37 °C. […] Following incubation, cells were washed three times with ice-cold PBS and lysed by addition of 50 μL lysis buffer (PBS supplemented with 20 mM Tris-HCl, 1% Triton X-100, pH 7.4). Fifty µL of scintillation cocktail (OptiPhase SuperMix, PerkinElmer) were added and the plates were subsequently counted for radioactivity (counts per minute, CPM) in a MicroBeta^2 microplate counter (PerkinElmer).

CCCCCCCCCCCCCCCC(=O)N[C@@H](CCC(=O)NCCCC[C@H](NC(=O)[C@H](CC(=O)O)NC(=O)[C@H](CO)NC(=O)[C@@H](NC(=O)[C@H](Cc1ccccc1)NC(=O)[C@@H](NC(=O)CNC(=O)[C@H](CCC(N)=O)NC(=O)C(C)(C)NC(=O)[C@@H](N)Cc1c[nH]cn1)[C@@H](C)O)[C@@H](C)O)C(=O)N[C@@H](CO)C(=O)N[C@@H](CCCCN)C(=O)N[C@@H](Cc1ccc(O)cc1)C(=O)N[C@@H](CC(C)C)C(=O)N[C@@H](CC(=O)O)C(=O)N[C@@H](CCC(=O)O)C(=O)N[C@@H](CCCNC(=N)N)C(=O)N[C@@H](C)C(=O)N[C@@H](C)C(=O)N[C@@H](CCC(N)=O)C(=O)N[C@@H](CC(=O)O)C(=O)N[C@@H](Cc1ccccc1)C(=O)N[C@H](C(=O)N[C@@H](CCC(N)=O)C(=O)N[C@@H](Cc1c[nH]c2ccccc12)C(=O)N[C@@H](CC(C)C)C(=O)N[C@@H](CC(C)C)C(=O)N[C@@H](CC(=O)O)C(=O)NCC(=O)NCC(=O)N1CCC[C@H]1C(=O)N[C@@H](CO)C(=O)N[C@@H](CO)C(=O)NCC(=O)N[C@@H](C)C(=O)N1CCC[C@H]1C(=O)N1CCC[C@H]1C(=O)N1CCC[C@H]1C(=O)N[C@@H](CO)C(N)=O)C(C)C)C(=O)O [Peptide 20]
IC50 (GLP-1R [1]; Fig. 7c receptor binding profile, n = 3 in duplicate, SEM, read-out: GLP-1R (pIC50 ± S.E.M.) (converted)): 3.39 nM | binding Span (GLP-1R [1]; GLP-1R WT, 0.1% casein, CHO-K1): 85.25 ± 8.33 | binding Span (GLP-1R [1]; GLP-1R WT, CHO-K1): 99.44 ± 2.88 % WT | IC50 (GLP-1R [1]; GLP-1R WT, CHO-K1, read-out: binding pIC50 (converted)): 6.17 nM | IC50 (GCGR; Fig. 7c receptor binding profile, n = 3 in duplicate, SEM, read-out: GCGR (pIC50 ± S.E.M.) (converted)): 107 nM | IC50 (GCGR; GCGR WT, 0.1% BSA, CHO-K1, read-out: Binding pIC50 (converted)): 55 nM | IC50 (GCGR; GCGR WT, 0.1% casein, CHO-K1, read-out: Binding pIC50 (converted)): 16.6 nM | binding Span (GCGR; GCGR WT, CHO-K1): 99.29 ± 3.10 % WT | IC50 (GCGR; GCGR WT, CHO-K1, read-out: binding pIC50 (converted)): 89.1 nM | EC50 (GLP-1R [2]; GLP-1R WT, read-out: cAMP pEC50 (converted)): 0.00269 nM | EC50 (GLP-1R [2]; GLP-1R, n = 4, SEM, read-out: cAMP pEC50 ± S.E.M. (converted)): 0.00123 nM | Emax (GLP-1R [2]; GLP-1R WT, 0.1% BSA, read-out: cAMP accumulation Emax): 99.24 ± 0.96% | Emax (GLP-1R [2]; GLP-1R WT, 0.1% casein, read-out: cAMP accumulation Emax): 98.5 ± 1.33% | Emax (GLP-1R [2]; GLP-1R WT, read-out: cAMP Emax): 99.6 ± 1.37% | Emax (GLP-1R [2]; GLP-1R, n = 4, SEM, read-out: cAMP Emax ± S.E.M.): 99.6 ± 1.17% | IC50 (GIPR; Fig. 7c receptor binding profile, n = 3 in duplicate, SEM, read-out: GIPR (pIC50 ± S.E.M.) (converted)): 6.61 nM | IC50 (GIPR; GIPR WT, 0.1% BSA, CHO-K1, read-out: Binding pIC50 (converted)): 13.2 nM | binding Span (GIPR; GIPR WT, 0.1% casein, CHO-K1): 99.92 ± 6.37 | IC50 (GIPR; GIPR WT, 0.1% casein, CHO-K1, read-out: Binding pIC50 (converted)): 3.39 nM | binding Span (GIPR; GIPR WT, CHO-K1): 97.43 ± 3.89 % WT | IC50 (GIPR; GIPR WT, CHO-K1, read-out: binding pIC50 (converted)): 18.2 nM and 10.7 nM
